Values quoted from earlier work, collected in patent US20020022057A1, “Oral delivery of pharmaceuticals via encapsulation” (priority 2000, published 2002).

Columns and labels:
[1] = applied topically to the skin
[2] = sublingual versus oral

CC(=O)Oc1ccccc1C(=O)O [Aspirin, aspirin]
skin reactions, including erythema and peeling [1]: 30 % of the subjects

CC(=O)[C@H]1CC[C@H]2[C@@H]3CCC4=CC(=O)CC[C@]4(C)[C@H]3CC[C@]12C [progesterone]
sublingual applications more effective than oral applications [2]: 50%
